What was measured:
SGLT-2 = target: T1, SGLT-2 (Homo sapiens, UniProt P31639); test: SGLT-2 activity measurement ([14C]-AMG uptake in CHO cells expressing human SGLT2); type: cell-based; conditions: CHO cells expressing human SGLT2, 0.5 μm [14C]-AMG, 37° C. for 1 hour
T1 construct: expressed in transfected cells
T1 sequence (P31639 1-672): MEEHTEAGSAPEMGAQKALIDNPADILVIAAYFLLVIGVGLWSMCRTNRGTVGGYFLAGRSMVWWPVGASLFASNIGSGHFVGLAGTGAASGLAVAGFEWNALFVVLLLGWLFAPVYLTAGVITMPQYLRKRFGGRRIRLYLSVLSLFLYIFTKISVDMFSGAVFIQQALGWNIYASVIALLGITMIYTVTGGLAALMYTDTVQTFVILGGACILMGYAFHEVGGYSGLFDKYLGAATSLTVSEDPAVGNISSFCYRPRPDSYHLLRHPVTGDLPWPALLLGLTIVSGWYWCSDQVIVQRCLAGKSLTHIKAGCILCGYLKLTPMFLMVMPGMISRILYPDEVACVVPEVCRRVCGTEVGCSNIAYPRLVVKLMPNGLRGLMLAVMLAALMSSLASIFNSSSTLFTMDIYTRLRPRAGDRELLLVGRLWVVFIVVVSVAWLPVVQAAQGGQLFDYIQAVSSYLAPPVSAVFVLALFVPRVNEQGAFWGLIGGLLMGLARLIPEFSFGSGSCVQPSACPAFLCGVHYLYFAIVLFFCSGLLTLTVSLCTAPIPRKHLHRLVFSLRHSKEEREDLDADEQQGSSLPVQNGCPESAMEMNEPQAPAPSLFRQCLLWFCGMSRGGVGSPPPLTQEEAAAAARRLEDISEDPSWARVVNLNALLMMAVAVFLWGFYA
Text: (§1) The following methods can be used to determine the inhibitory activity of the compounds described in the invention for SGLT-1 and SGLT-2.
(§2) ^14C-AMG solution was purchased from PerkinElmer, Cat. No. NEZ080001MC.
(§3) α-Methylglucoside was purchased from Sigma, Cat. No. M9376-100G.
(§4) N-methyl-D-glucosamine was purchased from Sigma, Cat. No. M2004-100G.
(§5) Phloridzin was purchased from Sigma, Cat. No. P3449-1G.
(§6) 96-Well plate was purchased from Corning, Cat. No. 3903.
(§7) Mock-transfected FIP-in CHO cells (3×10^4 cells) and expressing human SGLT1/SGLT2 CHO cells were seeded into 96-well plates respectively. The cells were incubated for 12 hours. Each well of the 96-well plates was washed with 150 μL of sodium-free buffer once. To each well was added 50 μL of sodium-containing buffer containing test compounds having different concentrations and […] [^14C]-AMG. The incubation mixture was incubated at 37° C. for 1 hour. To each well was added 150 μL of precooled sodium-free buffer to terminate the reaction. The cell pellet was washed with sodium-free buffer three times and the residual liquid in well was removed. To each well was added 20 μL of precooled 100 mM NaOH. The 96-well plates were vibrated at 900 rpm for 5 minutes. Scintillation fluid (80 μL) was added to each well which was then vibrated at 600 rpm for 5 minutes. The amount of ^14C-AMG was quantitatively detected using liquid scintillation.

SGLT-1 = target: T2, SGLT-1 (Homo sapiens, UniProt P13866); test: SGLT-1 activity measurement ([14C]-AMG uptake in CHO cells expressing human SGLT1); type: cell-based; conditions: CHO cells expressing human SGLT1, 0.5 μm [14C]-AMG, 37° C. for 1 hour
T2 construct: expressed in transfected cells
T2 sequence (P13866 1-664): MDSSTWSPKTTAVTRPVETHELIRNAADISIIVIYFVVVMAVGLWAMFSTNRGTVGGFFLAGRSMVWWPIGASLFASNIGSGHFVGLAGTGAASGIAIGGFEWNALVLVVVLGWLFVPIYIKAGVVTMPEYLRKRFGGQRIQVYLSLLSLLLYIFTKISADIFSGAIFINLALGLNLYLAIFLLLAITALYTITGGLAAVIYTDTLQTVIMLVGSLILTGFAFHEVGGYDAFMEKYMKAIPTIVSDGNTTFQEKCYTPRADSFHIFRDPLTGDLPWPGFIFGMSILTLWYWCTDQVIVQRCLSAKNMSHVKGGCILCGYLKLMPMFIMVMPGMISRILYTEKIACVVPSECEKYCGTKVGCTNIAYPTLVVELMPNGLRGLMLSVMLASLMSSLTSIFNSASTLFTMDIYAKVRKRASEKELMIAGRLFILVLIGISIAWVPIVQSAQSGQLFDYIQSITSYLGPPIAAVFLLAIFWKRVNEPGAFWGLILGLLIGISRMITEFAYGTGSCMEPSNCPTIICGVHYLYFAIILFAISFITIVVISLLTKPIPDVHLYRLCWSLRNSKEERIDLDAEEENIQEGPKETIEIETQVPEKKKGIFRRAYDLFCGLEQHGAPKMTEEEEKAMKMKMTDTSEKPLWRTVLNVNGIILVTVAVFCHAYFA
Text: as §1, §2, §3, §4, §5, §6, §7

For `CCOc1ccc(Cc2cc([C@]34OC[C@](C(C)(C)O)(O3)[C@@H](O)[C@H](O)[C@H]4O)ccc2Cl)cc1` [Example 2, (1S,2S,3S,4R,5S)-5-[4-Chloro-3-[(4-ethoxyphenyl)methyl]phenyl]-1-(2-hydroxypropan-2-yl)-6,8-dioxabicyclo[3.2.1]octane-2,3,4-triol], which IC50 (SGLT-2) is on record?
The IC50 was 1.14 nM.

And the IC50 (SGLT-1)?
Its IC50 is 110 nM.

What does the source list for `CC(O)[C@@]12CO[C@@](c3ccc(Cl)c(Cc4ccc(OCC(F)(F)F)cc4)c3)(O1)[C@H](O)[C@@H](O)[C@@H]2O` (stereo partly drawn) [Example 17, (1R,2S,3S,4R,5S)-5-[4-Chloro-3-[[4-(2,2,2-trifluoroethoxy)phenyl]methyl]phenyl]-1-(1-hydroxyethyl)-6,8-dioxabicyclo[3.2.1]octane-2,3,4-triol]?
IC50 (SGLT-2): 1.22 nM; IC50 (SGLT-1): 820 nM

With `CC(C)(O)[C@@]12CO[C@@](c3ccc(Cl)c(Cc4ccc(OCC(F)F)cc4)c3)(O1)[C@H](O)[C@@H](O)[C@@H]2O` [Example 25, (1S,2S,3S,4R,5S)-5-[4-Chloro-3-[[4-(2,2-difluoroethoxyl)phenyl]methyl]phenyl]-1-(1-hydroxy-1-methyl-ethyl)-6,8-dioxabicyclo[3.2.1]octane-2,3,4-triol] as the compound, how does the IC50 (SGLT-2) read?
The IC50 was 3.48 nM.

What about the IC50 (SGLT-1) of the same compound?
Its IC50 is 5560 nM.

With `COc1ccc(Cc2cc([C@]34OC[C@](C(C)O)(O3)[C@@H](O)[C@H](O)[C@H]4O)ccc2Cl)c(F)c1F` (stereo partly drawn) [Example 21, (1R,2S,3S,4R,5S)-5-[4-Chloro-3-[(2,3-difluoro-4-methoxy-phenyl)methyl]phenyl]-1-(1-hydroxyethyl)-6,8-dioxabicyclo[3.2.1]octane-2,3,4-triol] as the compound, how does the IC50 (SGLT-2) read?
Its IC50 is 0.81 nM.

What about the IC50 (SGLT-1) of the same compound?
The IC50 was 120 nM.

For `CCOc1ccc(Cc2cc([C@]34OC[C@](C(C)(C)O)(O3)[C@@H](O)[C@H](O)[C@H]4O)ccc2Cl)cc1F` [Example 20, (1S,2S,3S,4R,5S)-5-[4-Chloro-3-[(4-ethoxy-3-fluoro-phenyl)methyl]phenyl]-1-(1-hydroxy-1-methyl-ethyl)-6,8-dioxabicyclo[3.2.1]octane-2,3,4-triol], which IC50 (SGLT-2) is on record?
Its IC50 is 0.85 nM.

And the IC50 (SGLT-1)?
Its IC50 is 170 nM.

`CC(C)(O)[C@@]12CO[C@@](c3ccc(Cl)c(Cc4ccc(OC(F)(F)F)cc4)c3)(O1)[C@H](O)[C@@H](O)[C@@H]2O` [Example 16, (1S,2S,3S,4R,5S)-5-[4-chloro-3-[[4-(trifluoromethoxy)phenyl]methyl]phenyl]-1-(1-hydroxy-1-methyl-ethyl)-6,8-dioxabicyclo[3.2.1]octane-2,3,4-triol] was tested. Which IC50 (SGLT-2) did it give?
The IC50 was 2.95 nM.

What about the IC50 (SGLT-1) of the same compound?
Its IC50 is 1310 nM.

`CCOc1ccc(Cc2cc([C@]34OC[C@](C(C)O)(O3)[C@H](O)[C@H](O)[C@H]4O)ccc2Cl)cc1` (stereo partly drawn) [Example 28, (1R,2R,3S,4R,5S)-5-[4-Chloro-3-[(4-ethoxyphenyl)methyl]phenyl]-1-(1-hydroxyethyl)-6,8-dioxabicyclo[3.2.1]octane-2,3,4-triol] was tested. Which IC50 (SGLT-2) did it give?
The IC50 was 12.6 nM.

And the IC50 (SGLT-1)?
Its IC50 is 3400 nM.

`COc1ccc(Cc2cc([C@]34OC[C@](C(C)(C)O)(O3)[C@@H](O)[C@H](O)[C@H]4O)ccc2Cl)c(F)c1F` [Example 22, (1S,2S,3S,4R,5S)-5-[4-Chloro-3-[(2,3-difluoro-4-methoxy-phenyl)methyl]phenyl]-1-(1-hydroxy-1-methyl-ethyl)-6,8-dioxabicyclo[3.2.1]octane-2,3,4-triol] was tested. Which IC50 (SGLT-2) did it give?
Its IC50 is 1.84 nM.

And the IC50 (SGLT-1)?
The IC50 was 1040 nM.

With `CCOc1ccc(Cc2cc([C@]34OC[C@](C(C)O)(O3)[C@@H](O)[C@H](O)[C@H]4O)ccc2Cl)c(F)c1F` (stereo partly drawn) [Example 23, (1R,2S,3S,4R,5S)-5-[4-Chloro-3-[(4-ethoxy-2,3-difluoro-phenyl)methyl]phenyl]-1-(1-hydroxyethyl)-6,8-dioxabicyclo[3.2.1]octane-2,3,4-triol] as the compound, how does the IC50 (SGLT-2) read?
Its IC50 is 2.28 nM.

And the IC50 (SGLT-1)?
Its IC50 is 560 nM.

From US9394329B2, “Glucopyranosyl derivatives and their uses in medicine” (Sunshine Lake Pharma Co., Ltd., priority 2013, dated 2016)
